In patent US20120328638A1, “MYBL2 PEPTIDES AND VACCINES CONTAINING THE SAME” (Onco Therapy Science, Inc., priority 2009, published 2012):
Entries after “also recorded” stand apart in the source; their conditions may differ. Ends that are not written are not given here.

Tests used:
[1] = test system: target cells pulsed with the corresponding peptide (T2); assay: IFN-gamma ELISA assay of established CTL line and CTL clone; format: cell-based, human
Protocol: CTLs were expanded in culture using the method similar to the one described by Riddell et al. (Walter E A et al., N Engl J Med 1995 Oct. 19, 333(16): 1038-44; Riddell S R et al., Nat Med 1996 February, 2(2): 216-23). A total of 5×10^4 CTLs were suspended in 25 ml of AIM-V/5% AS medium with 2 kinds of human B-lymphoblastoid cell lines, inactivated by Mitomycin C, in the presence of 40 ng/ml of anti-CD3 monoclonal antibody (Pharmingen). One day after initiating the cultures, 120 IU/ml of IL-2 were added to the cultures. The cultures were fed with fresh AIM-V/5% AS medium containing 30 IU/ml of IL-2 on days 5, 8 and 11 (Tanaka H et al., Br J Cancer 2001 Jan. 5, 84(1): 94-9; Umano Y et al., Br J Cancer 2001 Apr. 20, 84(8): 1052-7; Uchida N et al., Clin Cancer Res 2004 Dec. 15, 10(24): 8577-86; Suda T et al., Cancer Sci 2006 May, 97(5): 411-9; Watanabe T et al., Cancer Sci 2005 August, 96(8): 498-506).
The dilutions were made to have 0.3, 1, and 3 CTLs/well in 96 round-bottomed micro titer plate (Nalge Nunc International). CTLs were cultured with 1×10^4 cells/well of 2 kinds of human B-lymphoblastoid cell lines, 30 ng/ml of anti-CD3 antibody, and 125 U/ml of IL-2 in a total of 150 microliter/well of AIM-V Medium containing 5% AS. 50 microliter/well of IL-2 were added to the medium 10 days later so to reach a final concentration of 125 U/ml IL-2. […]

[2] = test system: COS7 cells transfected with MYBL2 and HLA-A*0201; assay: Specific CTL activity against target cells exogenously expressing MYBL2 and HLA-A*0201; format: cell-based, African green monkey
Excerpt: The cDNA encoding an open reading frame of target genes or HLA-A*0201 was amplified by PCR. The PCR-amplified product was cloned into expression vector. The plasmids were transfected into COS7, which is the target genes and HLA-A*0201-null cell line, using lipofectamine 2000 (Invitrogen) according to the manufacturer's recommended procedures. After 2 days from transfection, the transfected cells were harvested with versene (Invitrogen) and used as the stimulator cells (5×10^4 cells/well) for CTL activity assay.
The established CTL clone raised against MYBL2-A02-9-144 (SEQ ID NO: 3) was examined for the ability to recognize target cells that express MYBL2 and HLA-A*0201 molecule. […] COS7 cells transfected with either full length of MYBL2 or HLA-A* 0201 were prepared as the controls.

peptide-pulsed T2 cells = assay: IFN-gamma ELISPOT assay of peptide specific CTL activity after in vitro CTL induction; format: cell-based, human; settings: against peptide-pulsed T2 cells compared with control not pulsed; PBMCs of HLA-A*0201 positive donor; day 21
Excerpt: Monocyte-derived dendritic cells (DCs) were used as antigen-presenting cells (APCs) to induce cytotoxic T lymphocyte (CTL) responses against peptides presented on human leukocyte antigen (HLA). DCs were generated in vitro as described elsewhere (Nakahara S et al., Cancer Res 2003 Jul. 15, 63(14): 4112-8). Specifically, peripheral blood mononuclear cells (PBMCs) isolated from a normal volunteer (HLA-A*0201 positive) by Ficoll-Plaque (Pharmacia) solution were separated by adherence to a plastic tissue culture dish (Becton Dickinson) so as to enrich them as the monocyte fraction. The monocyte-enriched population was cultured in the presence of 1000 U/ml of granulocyte-macrophage colony-stimulating factor (R&D System) and 1000 U/ml of interleukin (IL)-4 (R&D System) in AIM-V Medium (Invitrogen) containing 2% heat-inactivated autologous serum (AS). After 7 days of culture, the cytokine-induced DCs were pulsed with 20 microgram/ml of each of the synthesized peptides in the presence of 3 microgram/ml of beta 2-microglobulin for 3 hrs at 37 degrees C. in AIM-V Medium. The generated cells appeared to express DC-associated molecules, such as CD80, CD83, CD86 and HLA class II, on their cell surfaces (data not shown). […]

Sequence | IFN-gamma production of CTL clone (ELISA) ([1]; CTL clone established by limiting dilution, target cells pulsed with peptide vs not pulsed) | IFN-gamma production of CTL line (ELISA) ([1]; CTL line from well #8, target cells pulsed with peptide vs without peptide pulse) | Specific CTL activity of CTL clone against COS7 cells expressing both MYBL2 and HLA-A*0201 ([2]; COS7 transfected with both full length MYBL2 and HLA-A*0201) | Specific CTL activity of CTL clone against control COS7 cells ([2]; COS7 transfected with either full length MYBL2 or HLA-A*0201 alone) | IFN-gamma production of CTLs stimulated with peptide (ELISPOT) (peptide-pulsed T2 cells)
RIICEAHKV [MYBL2-A02-9-144, RIICEAHKV] | potent IFN-gamma production | potent IFN-gamma production | potent CTL activity; also recorded: specific CTL activity | no significant specific CTL activity was detected | potent IFN-gamma production
VLPPRQPSA [MYBL2-A02-9-355, VLPPRQPSA] | – | – | – | – | specific IFN-gamma production was not observed; also recorded: no specific IFN-gamma production was detected
